Reference: publication doi:10.1101/2024.08.19.608619, “Discovery of potent SARS-CoV-2 nsp3 macrodomain inhibitors uncovers lack of translation to cellular antiviral response” (bioRxiv, 2024)
Where two headings read alike, the source gives them in different places.

Columns and labels:
[1] = target: T1, SARS-CoV-2 nsp3-mac1 (Severe acute respiratory syndrome coronavirus 2, UniProt P0DTD1); assay: biochemical; design: SARS-CoV-2 nsp3 macrodomain TR-FRET single point, per cent inhibition, n=2
[2] = target: T1, SARS-CoV-2 nsp3-mac1; assay: biochemical; format: biochemical; settings: SARS-CoV-2 nsp3 macrodomain TR-FRET single point
[3] = read-out: perc_inhibition_mean, batch_name=ASAP-0000416-001
[4] = read-out: perc_inhibition_mean, batch_name=ASAP-0000199-002
[5] = read-out: perc_inhibition_mean, batch_name=ASAP-0000292-001
[6] = read-out: perc_inhibition_mean, batch_name=ASAP-0000336-001
[7] = read-out: perc_inhibition_mean, batch_name=ASAP-0000328-001
[8] = read-out: perc_inhibition_mean, batch_name=ASAP-0000349-001
[9] = read-out: perc_inhibition_mean, batch_name=ASAP-0000387-001
[10] = read-out: perc_inhibition_mean, batch_name=ASAP-0000357-001
[11] = read-out: perc_inhibition_mean, batch_name=ASAP-0000287-001
[12] = read-out: perc_inhibition_mean, batch_name=ASAP-0000384-001
[13] = read-out: perc_inhibition_mean, batch_name=ASAP-0000414-001
[14] = read-out: perc_inhibition_mean, batch_name=ASAP-0000314-001
[15] = read-out: perc_inhibition_mean, batch_name=ASAP-0000394-001

`Cc1ccc(C(=O)N(CCC(=O)N2CCNCC2)Cc2cccc(Cl)c2)[nH]1` [ASAP-0000416] was tested, and the inhibition at 49.75 µM [1, 3] was -5.9%, the inhibition at 99.5 µM [1, 3] was -3.94% and the perc_inhibition_mean ([2]; concentration 49.75 uM) was -5.904%. It also gave a perc_inhibition_mean ([2]; concentration 99.5 uM) of -3.936%.

`c1nc(-c2nc(-c3cc(C4CC4)[nH]n3)no2)c2cc[nH]c2n1` [ASAP-0000199] gave an inhibition at 50 µM ([1]; read-out: perc_inhibition_mean, batch_name=ASAP-0000199-001) of -2.81%, an inhibition at 50 µM [1, 4] of -4.8% and an inhibition at 100 µM [1, 4] of -2.45%. For the same compound, the perc_inhibition_mean ([2]; concentration 50.0 uM) was -2.809%, the perc_inhibition_mean ([2]; concentration 50.0 uM, n=2) was -4.799% and the perc_inhibition_mean ([2]; concentration 100.0 uM, n=2) was -2.454%.

In the case of `CN(C(=O)c1ccc(NC(=O)Nc2ccccc2)cc1)[C@@H]1CN2CCC1CC2` [ASAP-0000292], the inhibition at 49.75 µM [1, 5] is reported as -4.01%, the inhibition at 99.5 µM [1, 5] is reported as 2.77% and the perc_inhibition_mean ([2]; concentration 49.75 uM, n=2) is reported as -4.01%. It also gave a perc_inhibition_mean ([2]; concentration 99.5 uM, n=2) of 2.773%.

`Cc1cnc(CCNc2ncnc3[nH]ncc23)c(C)c1` [ASAP-0000013] was tested, and the inhibition at 50 µM ([1]; read-out: perc_inhibition_mean, batch_name=ASAP-0000013-001) was 4.34% and the perc_inhibition_mean ([2]; concentration 50.0 uM) was 4.342%.

Work on `Nc1c(O)cccc1C(=O)N(CCC(=O)N1CCNCC1)Cc1cccc(Cl)c1` [ASAP-0000336] yielded an inhibition at 49.75 µM [1, 6] of -1.24%, an inhibition at 99.5 µM [1, 6] of 1.46% and a perc_inhibition_mean ([2]; concentration 49.75 uM, n=2) of -1.238%. For the same compound, the perc_inhibition_mean ([2]; concentration 99.5 uM, n=2) was 1.457%.

`O=C(c1cn2ncccc2n1)N1CCC(c2ccn3ncc(C(=O)N4CCCCC4)c3c2)CC1` [ASAP-0000328] was tested, and the inhibition at 49.75 µM [1, 7] was 30.7%, the inhibition at 99.5 µM [1, 7] was 53.8% and the perc_inhibition_mean ([2]; concentration 49.75 uM, n=2) was 30.741%. The perc_inhibition_mean ([2]; concentration 99.5 uM, n=2) was 53.75%.

`CN1CCC[C@@H]1CNC(=O)c1cnn2ccc(C3CCN(C(=O)c4ccccc4)CC3)cc12` [ASAP-0000349] gave an inhibition at 49.75 µM [1, 8] of -4.43%, an inhibition at 99.5 µM [1, 8] of 1.5% and a perc_inhibition_mean ([2]; concentration 49.75 uM, n=2) of -4.432%. The perc_inhibition_mean ([2]; concentration 99.5 uM, n=2) was 1.495%.

`O=C(Nc1ccc(C(=O)NCc2c(C(=O)O)[nH]c3ccccc23)cc1)NC1CC1` [ASAP-0000131] gave an inhibition at 50 µM ([1]; read-out: perc_inhibition_mean, batch_name=ASAP-0000131-001) of 86.2% and a perc_inhibition_mean ([2]; concentration 50.0 uM) of 86.217%.

Compound `O=C(NCc1nc(-c2ccco2)n[nH]1)c1cc(=O)n2ncnc2[nH]1` [ASAP-0000128] has an inhibition at 50 µM ([1]; read-out: perc_inhibition_mean, batch_name=ASAP-0000128-001) of -2.6% and a perc_inhibition_mean ([2]; concentration 50.0 uM) of -2.599%.

Work on `Cc1cc(C(=O)N2CCC(c3ccn4ncc(C(=O)N5CCCCC5)c4c3)CC2)[nH]n1` [ASAP-0000387] yielded an inhibition at 49.75 µM [1, 9] of 16.6%, an inhibition at 99.5 µM [1, 9] of 31.6% and a perc_inhibition_mean ([2]; concentration 49.75 uM) of 16.559%. It also gave a perc_inhibition_mean ([2]; concentration 99.5 uM) of 31.572%.

`O=C1CCC[C@@H](C(=O)N(CCC(=O)N2CCNCC2)Cc2cccc(Cl)c2)N1` [ASAP-0000357] was tested, and the inhibition at 49.75 µM [1, 10] was 2.42%, the inhibition at 99.5 µM [1, 10] was -3.31% and the perc_inhibition_mean ([2]; concentration 49.75 uM) was 2.418%. The perc_inhibition_mean ([2]; concentration 99.5 uM) was -3.31%.

With `O=C(Nc1ccccc1)Nc1ccc(C(=O)N2CCc3ccncc32)cc1` [ASAP-0000287] the inhibition at 49.75 µM [1, 11] was -4.3%, the inhibition at 99.5 µM [1, 11] was 0.234% and the perc_inhibition_mean ([2]; concentration 49.75 uM, n=2) was -4.305%. The perc_inhibition_mean ([2]; concentration 99.5 uM, n=2) was 0.234%.

`CC(C)[C@@H](Nc1ncnc2[nH]ccc12)c1nncn1C` [ASAP-0000384] was tested, and the inhibition at 49.75 µM [1, 12] was 4.59%, the inhibition at 99.5 µM [1, 12] was 10.8% and the perc_inhibition_mean ([2]; concentration 49.75 uM) was 4.589%. For the same compound, the perc_inhibition_mean ([2]; concentration 99.5 uM) was 10.829%.

In the case of `O=C(Nc1cnc2[nH]ncc2c1)c1noc2c1CCCC2` [ASAP-0000010], the inhibition at 50 µM ([1]; read-out: perc_inhibition_mean, batch_name=ASAP-0000010-001) is reported as -1.4% and the perc_inhibition_mean ([2]; concentration 50.0 uM) is reported as -1.398%.

`Cc1[nH]ncc1CN(C)C(=O)c1cnn2ccc(C3CCN(C(=O)c4ccccc4)CC3)cc12` [ASAP-0000414] was tested, and the inhibition at 49.75 µM [1, 13] was -1.14%, the inhibition at 99.5 µM [1, 13] was 0.307% and the perc_inhibition_mean ([2]; concentration 49.75 uM) was -1.138%. For the same compound, the perc_inhibition_mean ([2]; concentration 99.5 uM) was 0.307%.

In the case of `Cc1ncc(C(=O)N(CCC(=O)N2CCNCC2)Cc2cccc(Cl)c2)cc1N` [ASAP-0000314], the inhibition at 49.75 µM [1, 14] is reported as 1.35%, the inhibition at 99.5 µM [1, 14] is reported as 1.3% and the perc_inhibition_mean ([2]; concentration 49.75 uM, n=2) is reported as 1.351%. The perc_inhibition_mean ([2]; concentration 99.5 uM, n=2) was 1.305%.

Compound `O=C(CCN(Cc1cccc(Cl)c1)C(=O)[C@H]1CCOC1)N1CCNCC1` [ASAP-0000394] has an inhibition at 49.75 µM [1, 15] of 4.08%, an inhibition at 99.5 µM [1, 15] of -3.96% and a perc_inhibition_mean ([2]; concentration 49.75 uM) of 4.078%. It also gave a perc_inhibition_mean ([2]; concentration 99.5 uM) of -3.965%.

Compound `FC(F)(F)CO[C@@H]1CCCN(c2ncnc3[nH]ccc23)C1` [ASAP-0000075] has an inhibition at 50 µM ([1]; read-out: perc_inhibition_mean, batch_name=ASAP-0000075-001) of 22.2% and a perc_inhibition_mean ([2]; concentration 50.0 uM) of 22.218%.
